Activity calls are given as the source filed them. No cut-off for these calls is given here.
Assays:
[1] = test system: HL-60; experiment: Cytotoxicity against human HL60 cells; format: functional, cell-based
[2] = test system: Saccharomyces cerevisiae; experiment: Antimicrobial activity against Saccharomyces cerevisiae harboring zds1delta, erg3delta pdr1delta pdr3delta mutant assessed as clear growth restored zone at 0.5 to 0.0156 ug/spot; format: functional, organism-based

SMILES	Activity [1]	Activity [2]	IC50 [1]
CC1(CO)CCCc2ccccc21 (configuration not stated)	inactive	inactive	–
Cc1ccc2c(c1CCC(C)C)CCC[C@]2(C)CO [KUJIGAMBEROL]	–	Active	24 µM
Cc1ccc2c(c1CCC(C)C)CCC[C@@]2(C)CO	Active	Active	–
OCC1CCCc2ccccc21 (configuration not stated)	inactive	inactive	–
Cc1ccc2c(c1CCC(C)C)CCCC2CO (configuration not stated)	Active	Active	–
COC(=O)C1(C)CCCc2ccccc21 (configuration not stated)	inactive	inactive	–
